Assay results taken from US20220040183A1, “USE OF INHIBITORS OF STRESS GRANULE FORMATION FOR TARGETING THE REGULATION OF IMMUNE RESPONSES” (INSERM (Institut National de la Santé et de la Recherche …, priority 2018, published 2022).

Tested on: PD-1, LAG3 and TIM3 expression by CD3+ T cells
Assay: Cell-based assay of immune checkpoint expression by T lymphocytes (flow cytometry)
Set-up: species or system human
Conditions: for PD-1, LAG3 and TIM3 expression by CD3+ T cells: PBMC activated with CD3/CD28 antibodies-coated beads, stimulated for 3 days, FIG. 4; for co-expression profile of PD-1, LAG3 and TIM3 immune checkpoint receptors on activated CD3+ T cells: healthy donors PBMC, FIG. 5, representative of n=6
Source text: PBMC were obtained from human healthy donors (Etablissement Français du Sang, Toulouse, France) after Ficoll-Hypaque (GE Healthcare) density centrifugation and cultured in RPMI 1640 medium (ThermoFisher Scientific) supplemented with 10% fetal bovine serum (ThermoFisher Scientific) and L-glutamine (SIGMA Aldrich).
Cell-Based Assay of Immune Checkpoint Expression by T Lymphocytes.
PBMC isolated from healthy donors were activated with CD3/CD28 antibodies-coated beads (ThermoFisher Scientific). When drugs were used (A-92 (1 μM) or GSK2606414 (GSK, 10 μM)), they were added simultaneously to the stimulation. After 3 days of in vitro culture, cells were processed for qRT-PCR, immunoblotting or flow cytometry analysis.

Row | SMILES | PD-1, LAG3 and TIM3 expression by CD3+ T cells (A-92 1 μM) | co-expression profile of PD-1, LAG3 and TIM3 immune checkpoint receptors on activated CD3+ T cells (A-92 1 μM) | PD-1, LAG3 and TIM3 expression by CD3+ T cells (GSK2606414 10 μM) | co-expression profile of PD-1, LAG3 and TIM3 immune checkpoint receptors on activated CD3+ T cells (GSK2606414 10 μM)
1 | c1nn(C2CCOCC2)cc1Nc1ncc2nnn(-c3ccc4cn[nH]c4c3)c2n1 [A-92, 3-(1H-indazol-6-yl)-N-[1-(oxan-4-yl)pyrazol-4-yl]triazolo[4,5-d]pyrimidin-5-amine] | impair immune checkpoints expression | impair immune checkpoints expression simultaneously | – | –
2 | Cn1cc(-c2ccc3c(c2)CCN3C(=O)Cc2cccc(C(F)(F)F)c2)c2c(N)ncnc21 [GSK2606414, 1-[5-(4-amino-7-methylpyrrolo[2,3-d]pyrimidin-5-yl)-2,3-dihydroindol-1-yl]-2-[3-(trifluoromethyl)phenyl]ethanone] | – | – | impair immune checkpoints expression | impair immune checkpoints expression simultaneously
